Structures can show the parent of a compound that is named as a salt.
How the values were obtained:
[1] = system: human plasma; experiment: Thrombin time (TT) in human plasma, anti-coagulant activity; format: biochemical; settings: human plasma deficient in platelets, 2 min incubation at 37° C., Prest Thrombin
Experimental: (§1) Anti-coagulant Activity, Measurement of Thrombin Time and Activated […] Man In order to evaluate the anti-coagulant activity of the compounds of the invention, the thrombin time (TT) and the activated cephalin time (ACT) were determined in human plasma samples. An ST4 coagulometer (Diagnostica Stago, France) was used. A lyophilised plasma, deficient in platelets (Stago), is taken up in distilled water. The TT is obtained using the reagent Prest Thrombin and the ACT using the reagent PTT Automate […]. […] The activity of an antagonist is evaluated by its capacity to prolong the TT and the ACT relative to the control. The effect of the inhibitors is expressed by the concentration in μM that doubles the coagulation time (Ctt2).

[2] = system: human plasma; experiment: Activated cephalin time (ACT) in human plasma, anti-coagulant activity; format: biochemical; settings: human plasma deficient in platelets, 2 min incubation at 37° C., PTT Automate Cephalin
Experimental: as §1

[3] = molecular target: T1, human thrombin (Homo sapiens, UniProt P00734); experiment: Inhibition of human thrombin (fibrin formation from purified human fibrinogen); format: biochemical; settings: human thrombin 0.7 nM, human fibrinogen 4 mM, pH 7.4, 20° C., 10 min preincubation
T1 construct: purchased Sigma
Experimental: Inhibition of Thrombin and of Fibrinolysis Serine Proteases […] The fibrin formed by the thrombin or by the paranitroanilide released by the action of the serine protease is measured spectrophotometrically at 405 nm after from 15 to 30 minutes' reaction at 20° C.

[4] = system: dog plasma; experiment: Anti-coagulant activity after administration per os to the dog, thrombin time (TT); format: in vivo; settings: oral
Experimental: (§2) Anti-coagulant Activity After Administration Per os to the Dog
(§3) Male or female dogs weighing 11-28 kg are treated by the oral route with the products of the invention (5 or 10 mg/kg). The coagulation times (TT, ACT) are determined in dog plasma samples 10 min. before and 30 min., 1 hour, 2 hours, 4 hours and 6 hours after administration of the products. The measurements of the coagulation times are carried out as described in Example 81.
(§4) Under the conditions of our experiments, the TT is of the order of 19 seconds and the ACT of the order of 18 seconds.
(§5) The Table 4 summarizes the results obtained.

[5] = system: dog plasma; experiment: Anti-coagulant activity after administration per os to the dog, activated cephalin time (ACT); format: in vivo; settings: oral
Experimental: as §2, §3, §4, §5

IC50 [3] [nM]	SMILES	TT Ctt2 (concentration that doubles the coagulation time) [1] [µM]	ACT Ctt2 (concentration that doubles the coagulation time) [2] [µM]	TT increase (maximal; number of times by which the initial time is increased) ([4]; 5 mg/kg) [times]	ACT increase (maximal; number of times by which the initial time is increased) ([5]; 5 mg/kg) [times]	TT increase (maximal; number of times by which the initial time is increased) ([4]; 10 mg/kg) [times]	ACT increase (maximal; number of times by which the initial time is increased) ([5]; 10 mg/kg) [times]
7.9	Cl.Cl.N=C(N)c1ccc(CNC(=O)[C@]23C[C@H]2CCN3C(=O)[C@H](N)CC2CCCCC2)cc1 [Example 2, 1-[(2R)-3-Cyclohexylalanyl]-N-(4-amidinobenzyl)-(2S,3R)-2,3-methano-prolinamide dihydrochloride]	0.07	0.52	3.8	1.4	–	–
5.3	Cl.N=C(N)c1ccc(CNC(=O)[C@]23C[C@H]2CCN3C(=O)[C@@H](CC2CCCCC2)NCC(=O)O)cc1 [Example 3, 1-[N-Carboxymethyl-(2R)-3-cyclohexylalanyl]-N-(4-amidinobenzyl)-(2S,3R)-2,3-methano-prolinamide hydrochloride]	0.06	0.56	8.4	2.1	–	–
6	Cl.N=C(N)c1ccc(CNC(=O)[C@]23C[C@H]2CCN3C(=O)[C@@H](Cc2ccccc2)NS(=O)(=O)Cc2ccccc2)cc1 [Example 9, 1-[N-Benzylsulphonyl-(2R)-3-phenylalanyl]-N-(4-amidinobenzyl)-(2S,3R)-2,3-methano-prolinamide hydrochloride]	0.20	0.86	–	–	–	–
4	Cl.Cl.N=C(N)c1ccc(CNC(=O)[C@]23C[C@H]2CCN3C(=O)[C@H](N)C(c2ccccc2)c2ccccc2)cc1 [Example 11, 1-[(2R)-3,3-Diphenylalanyl]-N-(4-amidinobenzyl)-(2S,3R)-2,3-methano-prolinamide dihydrochloride]	0.06	0.59	5.6	2.3	–	–
1.2	Cl.Cl.N=C(N)c1ccc(CNC(=O)[C@]23C[C@H]2CCN3C(=O)[C@H](N)C(C2CCCCC2)C2CCCCC2)cc1 [Example 13, 1-[(2R)-3,3-Dicyclohexylalanyl]-N-(4-amidinobenzyl)-(2S,3R)-2,3-methano-prolinamide dihydrochloride]	0.18	2.30	–	–	–	–
1	Cl.N=C(N)c1ccc(CNC(=O)[C@]23C[C@H]2CCN3C(=O)[C@H](NCC(=O)O)C(C2CCCCC2)C2CCCCC2)cc1 [Example 14, 1-[N-Carboxymethyl-(2R)-3,3-dicyclohexylalanyl]-N-(4-amidinobenzyl)-(2S,3R)-2,3-methano-prolinamide hydrochloride]	0.19	2.20	–	–	–	–
1	N=C(N)c1ccc(CNC(=O)[C@]23C[C@H]2CCN3C(=O)[C@H](NS(=O)(=O)Cc2ccccc2)C2CCCCC2)cc1 [Example 16, 1-[N-Benzylsulphonyl-(2R)-cyclohexylglycyl]-N-(4-amidinobenzyl)-(2S,3R)-2,3-methano-prolinamide hydrochloride]	0.09	0.42	–	–	–	–
28	N=C(N)c1ccc(CNC(=O)[C@]23C[C@H]2CCN3C(=O)[C@H](NCC(=O)O)C2CCCCC2)cc1 [Example 17, 1-[N-Carboxymethyl-(2R)-cyclohexylglycyl]-N-(4-amidinobenzyl)-(2S,3R)-2,3-methano-prolinamide hydrochloride]	0.11	0.86	16.0	3.7	–	–
2.3	Cl.N=C(N)c1ccc(CNC(=O)[C@]23C[C@H]2CCCN3C(=O)[C@@H](CC2CCCCC2)NCC(=O)O)cc1 [Example 24, 1-[N-Carboxymethyl-(2R)-3-cyclohexylalanyl]-N-(4-amidinobenzyl)-(2S,3R)-2,3-methano-homoprolinamide hydrochloride]	0.03	0.58	6.7	1.2	–	–
2	CCOC(=O)CN[C@H](CC1CCCCC1)C(=O)N1CCC[C@@H]2C[C@@]21C(=O)NCc1ccc(C(=N)N)cc1.Cl.Cl [Example 25, 1-[N-Ethoxycarbonylmethyl-(2R)-3-cyclohexylalanyl]-N-(4-amidinobenzyl)-(2S,3R)-2,3-methano-homoprolinamide dihydrochloride]	0.08	0.45	–	–	–	–
26	Cc1nc(N)ccc1CNC(=O)[C@]12C[C@H]1CCCN2C(=O)[C@H](N)CC1CCCCC1.Cl.Cl [Example 28, 1-[(2R)-3-Cyclohexylalanyl]-N-[(6-amino-2-methyl-3-pyridyl)methyl]-(2S,3R)-2,3-methano-homoprolinamide dihydrochloride]	0.31	2.30	–	–	6.2	1.8
44	CN[C@H](CC1CCCCC1)C(=O)N1CCC[C@@H]2C[C@@]21C(=O)NCc1ccc(N)nc1C.Cl.Cl [Example 29, 1-[N-Methyl-(2R)-3-cyclohexylalanyl]-N-[(6-amino-2-methyl-3-pyridyl)methyl]-(2S,3R)-2,3-methano-homoprolinamide dihydrochloride]	0.46	2.80	–	–	6.2	1.7
5.1	CCCCN[C@H](CC1CCCCC1)C(=O)N1CCC[C@@H]2C[C@@]21C(=O)NCc1ccc(N)nc1C.Cl.Cl [Example 31, 1-[N-Butyl-(2R)-3-cyclohexylalanyl]-N-[(6-amino-2-methyl-3-pyridyl)methyl]-(2S,3R)-2,3-methano-homoprolinamide dihydrochloride]	0.17	1.30	–	–	–	–
7.1	Cc1nc(N)ccc1CNC(=O)[C@]12C[C@H]1CCCN2C(=O)[C@@H](CC1CCCCC1)NCC(=O)O.Cl.Cl [Example 32, 1-[N-Carboxymethyl-(2R)-3-cyclohexylalanyl]-N-[(6-amino-2-methyl-3-pyridyl)methyl]-(2S,3R)-2,3-methano-homoprolinamide dihydrochloride]	0.12	1.09	–	–	–	–
5.1	CCOC(=O)CN[C@H](CC1CCCCC1)C(=O)N1CCC[C@@H]2C[C@@]21C(=O)NCc1ccc(N)nc1C.Cl.Cl [Example 33, 1-[N-Ethoxycarbonylmethyl-(2R)-3-cyclohexylalanyl]-N-[(6-amino-2-methyl-3-pyridyl)methyl]-(2S,3R)-2,3-methano-homoprolinamide dihydrochloride]	0.11	1.10	7.1	1.5	–	–
1	Cl.Cl.N=C(N)c1ccc(CNC(=O)[C@]23C[C@H]2CCCN3C(=O)[C@H](N)C(c2ccccc2)c2ccccc2)cc1 [Example 61, 1-[(2R)-3,3-Diphenylalanyl]-N-(4-amidinobenzyl)-(2S,3R)-2,3-methano-homoprolinamide dihydrochloride]	0.05	0.47	14.2	2.0	–	–
8.8	Cc1nc(N)ccc1CNC(=O)[C@]12C[C@H]1CCCN2C(=O)[C@H](N)C(C1CCCCC1)C1CCCCC1 [Example 63, 1-[(2R)-3,3-Dicyclohexylalanyl]-N-[(6-amino-2-methyl-3-pyridyl)methyl]-(2S,3R)-2,3-methano-homoprolinamide dihydrochloride]	–	–	–	–	–	–

From patent US6288077A, “2,3-methano-amino acid compounds” (Adir et Compagnie, priority 1999, dated 2001)
